# Where “and” joins values, the source holds several entries; their conditions need not be identical. Equal entries are not always repeated.
# Experiments:
# Mus musculus [1] = assay: Antagonism of apomorphine for 0-10 minutes in reserpinized mice when a dose of 36 micro mol/kg is administered intraperitoneally; format: functional
# Mus musculus [2] = assay: Antagonism of apomorphine for 10-20 minutes in reserpinized mice when a dose of 36 micro mol/kg is administered intraperitoneally; format: functional
# Mus musculus [3] = assay: Maximum decrease in temperature when compound is administered through peroral route; format: functional
# Mus musculus [4] = assay: Antagonism of apomorphine in reserpinized mice when a dose of 3.6 micro mol/kg is administered intraperitoneally; format: functional
# Felis catus [5] = assay: Maximum decrease of sympathetic nerve activity (SND) in anesthetized cat; format: functional; design: scale not given: the % may be the effect or the level left
# Mus musculus [6] = assay: Effective dose on hypothermia in mouse when administered through peroral route; format: functional; details: po
# Mus musculus [7] = assay: Ability to stimulate dopaminergic systems by effect on locomotor activity in reserpinized mice when a dose of 3.6 micro mol/kg is administered intraperitoneally; format: functional
# Mus musculus [8] = assay: Effective dose on hypothermia in mouse when administered subcutaneously; format: functional; details: sc
# Mus musculus [9] = assay: Antagonism of apomorphine effects in reserpinized mice following 0.4 umol/kg i.p.; format: functional
# Rattus norvegicus [10] = assay: Inhibition of firing rates of serotonergic neurons in the dorsal raphe nucleus by intravenous injection in rats; format: functional
# Felis catus [11] = assay: Maximum decrease of arterial blood pressure at sympathetic nerve activity (SND) in anesthetized cat has been observed following 1 mg/kg dose; format: functional; design: scale not given: the % may be the effect or the level left
# Mus musculus [12] = assay: Increase in locomotor activity in reserpinized mice following 0.4 umol/kg i.p.; format: functional
# Mus musculus [13] = assay: Antagonism of apomorphine for 0-10 minutes in reserpinized mice when a dose of 3.6 micro mol/kg is administered intraperitoneally; format: functional
# Mus musculus [14] = assay: Antagonism of apomorphine effects for 10-20 minutes in reserpinized mice following 0.4 umol/kg i.p.; format: functional
# Mus musculus [15] = assay: Ability to stimulate dopaminergic systems by effect on locomotor activity in reserpinized mice when a dose of 36 micro mol/kg is administered intraperitoneally; format: functional
# Mus musculus [16] = assay: Maximum decrease in temperature when compound is administered subcutaneously; format: functional
# Mus musculus [17] = assay: Antagonism of apomorphine effects for 0-10 minutes in reserpinized mice following 0.4 umol/kg i.p.; format: functional; design: unit not given beside the values
# Rattus norvegicus [18] = species: Rattus norvegicus; assay: Effect on the synthesis rates of serotonin (5-HTP accumulation) in the rat ventral limbic brain region at 3.6uMkg.; format: functional, Limbic system
# Rattus norvegicus [19] = assay: Effect on the synthesis rates of dopamine (DOPA accumulation) in the rat ventral limbic brain region at 3.6 micro mol/kg; format: functional, Limbic system
# Mus musculus [20] = assay: Antagonism of apomorphine for 10-20 minutes in reserpinized mice when a dose of 3.6 micro mol/kg is administered intraperitoneally; format: functional
# Mus musculus [21] = assay: Antagonism of apomorphine in reserpinized mice when a dose of 36 micro mol/kg is administered intraperitoneally; format: functional
# Mus musculus [22] = assay: Time of effect in the isolation-induced aggression behavioral assay in the mouse when a dose of 36 micro mol/kg is administered perorally; format: functional
# Mus musculus [23] = assay: Time of effect in the isolation-induced aggression behavioral assay in the mouse when a dose of 3.6 micro mol/kg is administered perorally; format: functional
# D(2) dopamine receptor [24] = molecular target: T1, D(2) dopamine receptor (Homo sapiens, UniProt P14416); assay: Binding affinity against [3H]U-86,170-labeled dopamine receptor D2 in cloned CHO cells; format: cell-based
# Mus musculus [25] = assay: Time of effect in the face-to-face behavioral assay in the mouse when a dose of 0.4 micro mol/kg is administered perorally; format: functional
# D(2) dopamine receptor [26] = molecular target: T1, D(2) dopamine receptor; assay: Intrinsic activity from GTP shift using membranes from CHO cells transfected with mammalian dopamine receptor D2.; format: cell membranes
# Rattus norvegicus [27] = assay: Inhibition of firing rates of serotonergic neurons in the dorsal raphe nucleus by intravenous injection in rats.; format: functional
# Mus musculus [28] = assay: Time of effect in the face-to-face behavioral assay in the mouse when a dose of 36 micro mol/kg is administered perorally; format: functional
# Rattus norvegicus [29] = assay: Inhibition of firing rates of dopaminergic neurons in the substantia nigra pars compacta by intravenous injection in rats.; format: functional; details: Rattus norvegicus, Substantia nigra pars compacta, iv; read-out: ED50
# Mus musculus [30] = assay: Time of effect in the isolation-induced aggression behavioral assay in the mouse when a dose of 0.0 micro mol/kg is administered perorally; format: functional
# Mus musculus [31] = assay: Time of effect in the face-to-face behavioral assay in the mouse when a dose of 0.0 micro mol/kg is administered perorally; format: functional
# Mus musculus [32] = assay: Time of effect in the face-to-face behavioral assay in the mouse when a dose of 3.6 micro mol/kg is administered perorally; format: functional
# Mus musculus [33] = assay: Time of effect in the isolation-induced aggression behavioral assay in the mouse when a dose of 11 micro mol/kg is administered perorally; format: functional
# Mus musculus [34] = assay: Ability to stimulate dopaminergic systems by effect on locomotor activity in reserpinized mice when a dose of 4 micro mol/kg is administered intraperitoneally; format: functional
# D(2) dopamine receptor [35] = molecular target: T2, D(2) dopamine receptor (Rattus norvegicus, UniProt P61169); assay: Inhibitory concentration against [3H]raclopride-labeled dopamine receptor D2 in rat striatum; format: tissue-based
# Mus musculus [36] = assay: Antagonism of apomorphine for 10-20 minutes in reserpinized mice when a dose of 4 micro mol/kg is administered intraperitoneally; format: functional
# Mus musculus [37] = assay: Antagonism of apomorphine for 0-10 minutes in reserpinized mice when a dose of 4 micro mol/kg is administered intraperitoneally; format: functional
# Mus musculus [38] = assay: Antagonism of apomorphine in reserpinized mice when a dose of 4 micro mol/kg is administered intraperitoneally; format: functional
# D(2) dopamine receptor [39] = molecular target: T2, D(2) dopamine receptor; assay: Compound was evaluated for the binding affinity against [3H]U-86,170-labeled dopamine receptor D2 in cloned CHO cells; format: cell-based
# Mus musculus [40] = assay: Antagonism of apomorphine for 0-10 minutes in reserpinized mice when a dose of 0.4 micro mol/kg is administered intraperitoneally (*,p<0.05); format: functional
# Rattus norvegicus [41] = species: Rattus norvegicus; assay: Effect on the synthesis rates of serotonin (5-HTP accumulation) in the rat ventral limbic brain region at 3.6uMkg; format: functional, Limbic system
# T1 sequence (P14416 whole entry): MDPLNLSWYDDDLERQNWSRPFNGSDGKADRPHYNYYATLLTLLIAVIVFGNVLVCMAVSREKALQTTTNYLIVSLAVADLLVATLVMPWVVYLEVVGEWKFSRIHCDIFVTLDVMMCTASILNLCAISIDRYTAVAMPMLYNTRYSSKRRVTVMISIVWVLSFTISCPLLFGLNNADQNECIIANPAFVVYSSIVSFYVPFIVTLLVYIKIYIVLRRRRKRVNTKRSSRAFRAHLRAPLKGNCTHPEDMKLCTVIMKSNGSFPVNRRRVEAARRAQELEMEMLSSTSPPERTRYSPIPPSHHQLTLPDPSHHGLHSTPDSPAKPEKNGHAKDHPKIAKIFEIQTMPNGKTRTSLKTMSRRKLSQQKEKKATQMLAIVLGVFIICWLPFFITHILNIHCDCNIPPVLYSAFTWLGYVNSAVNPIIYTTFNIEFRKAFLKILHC
# T2 sequence (P61169 whole entry): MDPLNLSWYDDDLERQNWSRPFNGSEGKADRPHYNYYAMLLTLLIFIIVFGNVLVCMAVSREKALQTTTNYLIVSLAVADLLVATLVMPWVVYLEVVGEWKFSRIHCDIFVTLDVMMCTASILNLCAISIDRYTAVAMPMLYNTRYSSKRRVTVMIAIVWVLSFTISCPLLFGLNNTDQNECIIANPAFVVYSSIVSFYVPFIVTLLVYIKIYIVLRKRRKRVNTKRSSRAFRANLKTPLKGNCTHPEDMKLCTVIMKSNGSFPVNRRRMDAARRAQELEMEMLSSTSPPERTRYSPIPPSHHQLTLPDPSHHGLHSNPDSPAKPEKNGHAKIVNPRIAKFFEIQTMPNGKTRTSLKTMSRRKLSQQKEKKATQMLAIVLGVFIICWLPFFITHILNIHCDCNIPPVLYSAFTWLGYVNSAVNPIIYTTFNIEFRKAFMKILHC
SMILES,Locomotor activity (Mus musculus [1]),Locomotor activity (Mus musculus [2]),Locomotor activity (Mus musculus [4]),Control (Felis catus [5]),Locomotor activity (Mus musculus [7]),ED50 (Mus musculus [8]),Locomotor activity (Mus musculus [9]),Control (Felis catus [11]),Locomotor activity (Mus musculus [12]),Locomotor activity (Mus musculus [13]),Locomotor activity (Mus musculus [14]),Locomotor activity (Mus musculus [15]),Max temperature decrease (Mus musculus [16]),Locomotor activity (Mus musculus [17]),Control (Rattus norvegicus [18]),Locomotor activity (Mus musculus [20]),Locomotor activity (Mus musculus [21]),Ki (D(2) dopamine receptor [24]),Intrinsic activity (D(2) dopamine receptor [26]),other results
C=CCN1CC[C@H]2c3c(cccc3OC)CC[C@H]21 (racemic),54,45,6,189%,37,8.2 µmol/kg,55,59%,6,121,94,70,4.2,96,-52%,94,4,–,–,Max temperature decrease (Mus musculus [3]): 3.6; ED50 (Mus musculus [6]): 101 µmol/kg; ED50 (Rattus norvegicus [10]): 0.04 µmol/kg; Control (Rattus norvegicus [19]): 48%
"C=CCN1CCC2c3c(cccc3OC)CC[C@H]21 (single isomer, unassigned; (-))",24,18,14,385%,79,–,50,55%,7,52,45,52,–,29,–,49,11,6.7 nM,24%,Time (Mus musculus [22]): 236 s; Time (Mus musculus [23]): 85 s; Time (Mus musculus [25]): 0.9 s; ED50 (Rattus norvegicus [27]): 0.007 µmol/kg; Time (Mus musculus [28]): 1.4 s; ED50 (Rattus norvegicus [29]): 0.04 µmol/kg; Time (Mus musculus [30]): 18 s and 27 s; Time (Mus musculus [31]): 1.2 s; Time (Mus musculus [32]): 1.3 s; Time (Mus musculus [33]): 40 s
CCCN1CC[C@@H]2c3ccccc3CC[C@H]21 (racemic),–,–,–,–,–,–,55,–,22,–,61,–,–,41,–,–,–,–,–,Locomotor activity (Mus musculus [34]): 15; IC50 (D(2) dopamine receptor [35]): > 1000 nM; Locomotor activity (Mus musculus [36]): 46; Locomotor activity (Mus musculus [37]): 22; Locomotor activity (Mus musculus [38]): 48
CCCN1CC[C@H]2c3ccccc3CC[C@H]21 (racemic),–,–,–,–,–,–,128,–,15,–,76,–,–,–,–,–,–,–,–,Ki (D(2) dopamine receptor [39]): 548 nM; Locomotor activity (Mus musculus [40]): 56
C=CCN1CC[C@@H]2c3c(cccc3OC)CC[C@H]21 (racemic),40,32,30,–,11,40 µmol/kg,140,–,36,65,65,48,4.5,65,-28%,57,5,8.5 nM,0%,Control (Rattus norvegicus [41]): 158%
